Test results: PubChem BioAssay (NCI)
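All cell lines were grown in 96-well plates and treated with compound for 48 hours. TGI: total growth inhibition.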

Columns and labels:
Experiment in all cases: growth of human tumour cells (NCI), 48 h
RXF 393 renal = test system: RXF 393 renal
OVCAR-5 ovarian = test system: OVCAR-5 ovarian
T-47D breast = test system: T-47D breast
786-0 renal = test system: 786-0 renal
UACC-62 melanoma = test system: UACC-62 melanoma
SN12C renal = test system: SN12C renal
CCRF-CEM leukemia = test system: CCRF-CEM leukemia
NCI-H226 lung = test system: NCI-H226 lung
SF-539 CNS = test system: SF-539 CNS
TK-10 renal = test system: TK-10 renal
A549 NSCLC = test system: A549 NSCLC
HCT-116 colon = test system: HCT-116 colon
HL-60(TB) leukemia = test system: HL-60(TB) leukemia
MDA-MB-435 = test system: MDA-MB-435
OVCAR-3 ovarian = test system: OVCAR-3 ovarian
IGROV1 ovarian = test system: IGROV1 ovarian
HCC-2998 colon = test system: HCC-2998 colon
MOLT-4 leukemia = test system: MOLT-4 leukemia
ACHN renal = test system: ACHN renal
HS 578T breast = test system: HS 578T breast
SK-MEL-5 melanoma = test system: SK-MEL-5 melanoma
SK-MEL-28 melanoma = test system: SK-MEL-28 melanoma
MDA-N = test system: MDA-N
DU-145 prostate = test system: DU-145 prostate
NCI-H460 lung = test system: NCI-H460 lung
UO-31 renal = test system: UO-31 renal
OVCAR-4 ovarian = test system: OVCAR-4 ovarian
COLO 205 colon = test system: COLO 205 colon
NCI/ADR-RES ovarian = test system: NCI/ADR-RES ovarian
SR leukemia = test system: SR leukemia
HCT-15 colon = test system: HCT-15 colon
HOP-92 NSCLC = test system: HOP-92 NSCLC
SK-OV-3 ovarian = test system: SK-OV-3 ovarian
EKVX NSCLC = test system: EKVX NSCLC
SF-295 CNS = test system: SF-295 CNS
MDA-MB-231 breast = test system: MDA-MB-231 breast
SNB-19 CNS = test system: SNB-19 CNS
UACC-257 melanoma = test system: UACC-257 melanoma
SW-620 colon = test system: SW-620 colon
NCI-H23 lung = test system: NCI-H23 lung
K-562 leukemia = test system: K-562 leukemia
NCI-H522 lung = test system: NCI-H522 lung
LOX IMVI melanoma = test system: LOX IMVI melanoma
HT29 colon = test system: HT29 colon
HOP-62 NSCLC = test system: HOP-62 NSCLC
M14 melanoma = test system: M14 melanoma
RPMI-8226 leukemia = test system: RPMI-8226 leukemia
U251 CNS = test system: U251 CNS
BT-549 breast = test system: BT-549 breast
SNB-75 CNS = test system: SNB-75 CNS
OVCAR-8 ovarian = test system: OVCAR-8 ovarian
MCF7 breast = test system: MCF7 breast
SF-268 CNS = test system: SF-268 CNS
PC-3 prostate = test system: PC-3 prostate
KM12 colon = test system: KM12 colon
MALME-3M melanoma = test system: MALME-3M melanoma
SK-MEL-2 melanoma = test system: SK-MEL-2 melanoma
CAKI-1 renal = test system: CAKI-1 renal
A498 renal = test system: A498 renal

## O=NN1CCNC1Cc1ccccc1 (configuration not stated)
RXF 393 renal
  TGI: > 100 µM
OVCAR-5 ovarian
  TGI: > 100 µM
T-47D breast
  TGI: > 100 µM
786-0 renal
  TGI: > 100 µM
UACC-62 melanoma
  TGI: > 100 µM
SN12C renal
  TGI: > 100 µM
CCRF-CEM leukemia
  TGI: > 100 µM
NCI-H226 lung
  TGI: > 100 µM
SF-539 CNS
  TGI: > 100 µM
TK-10 renal
  TGI: > 100 µM
A549 NSCLC
  TGI: > 100 µM
HCT-116 colon
  TGI: > 100 µM
HL-60(TB) leukemia
  TGI: > 100 µM
MDA-MB-435
  TGI: > 100 µM
OVCAR-3 ovarian
  TGI: > 100 µM
IGROV1 ovarian
  TGI: > 100 µM
HCC-2998 colon
  TGI: > 100 µM
MOLT-4 leukemia
  TGI: > 100 µM
ACHN renal
  TGI: > 100 µM
HS 578T breast
  TGI: > 100 µM
SK-MEL-5 melanoma
  TGI: > 100 µM
SK-MEL-28 melanoma
  TGI: > 100 µM
MDA-N
  TGI: > 100 µM
DU-145 prostate
  TGI: > 100 µM
NCI-H460 lung
  TGI: > 100 µM
UO-31 renal
  TGI: > 100 µM
OVCAR-4 ovarian
  TGI: > 100 µM
COLO 205 colon
  TGI: > 100 µM
NCI/ADR-RES ovarian
  TGI: > 100 µM
SR leukemia
  TGI: > 100 µM
HCT-15 colon
  TGI: > 100 µM
HOP-92 NSCLC
  TGI: > 100 µM
SK-OV-3 ovarian
  TGI: > 100 µM
EKVX NSCLC
  TGI: > 100 µM
SF-295 CNS
  TGI: > 100 µM
MDA-MB-231 breast
  TGI: > 100 µM
SNB-19 CNS
  TGI: > 100 µM
UACC-257 melanoma
  TGI: > 100 µM
SW-620 colon
  TGI: > 100 µM
NCI-H23 lung
  TGI: > 100 µM
K-562 leukemia
  TGI: > 100 µM
NCI-H522 lung
  TGI: > 100 µM
LOX IMVI melanoma
  TGI: > 100 µM
HT29 colon
  TGI: > 100 µM
HOP-62 NSCLC
  TGI: > 100 µM
M14 melanoma
  TGI: > 100 µM
RPMI-8226 leukemia
  TGI: > 100 µM
U251 CNS
  TGI: > 100 µM
BT-549 breast
  TGI: > 100 µM
SNB-75 CNS
  TGI: 72.6 µM
OVCAR-8 ovarian
  TGI: > 100 µM
MCF7 breast
  TGI: > 100 µM
SF-268 CNS
  TGI: > 100 µM
PC-3 prostate
  TGI: > 100 µM
KM12 colon
  TGI: > 100 µM
MALME-3M melanoma
  TGI: > 100 µM

## C=C(CCOC)CCC1CCCCC/C1=N\N(C)C (configuration not stated)
RXF 393 renal
  TGI: > 100 µM
OVCAR-5 ovarian
  TGI: > 100 µM
T-47D breast
  TGI: > 100 µM
786-0 renal
  TGI: > 100 µM
UACC-62 melanoma
  TGI: > 100 µM
SN12C renal
  TGI: > 100 µM
CCRF-CEM leukemia
  TGI: > 100 µM
NCI-H226 lung
  TGI: > 100 µM
A549 NSCLC
  TGI: > 100 µM
HCT-116 colon
  TGI: > 100 µM
HL-60(TB) leukemia
  TGI: > 100 µM
MDA-MB-435
  TGI: > 100 µM
OVCAR-3 ovarian
  TGI: > 100 µM
IGROV1 ovarian
  TGI: > 100 µM
HCC-2998 colon
  TGI: > 100 µM
MOLT-4 leukemia
  TGI: > 100 µM
ACHN renal
  TGI: > 100 µM
SK-MEL-2 melanoma
  TGI: > 100 µM
CAKI-1 renal
  TGI: > 100 µM
HS 578T breast
  TGI: > 100 µM
SK-MEL-5 melanoma
  TGI: > 100 µM
SK-MEL-28 melanoma
  TGI: > 100 µM
MDA-N
  TGI: > 100 µM
DU-145 prostate
  TGI: > 100 µM
NCI-H460 lung
  TGI: > 100 µM
UO-31 renal
  TGI: > 100 µM
OVCAR-4 ovarian
  TGI: > 100 µM
COLO 205 colon
  TGI: > 100 µM
NCI/ADR-RES ovarian
  TGI: > 100 µM
SR leukemia
  TGI: > 100 µM
HCT-15 colon
  TGI: > 100 µM
SK-OV-3 ovarian
  TGI: > 100 µM
EKVX NSCLC
  TGI: > 100 µM
SF-295 CNS
  TGI: > 100 µM
MDA-MB-231 breast
  TGI: > 100 µM
SNB-19 CNS
  TGI: > 100 µM
SW-620 colon
  TGI: > 100 µM
NCI-H23 lung
  TGI: > 100 µM
K-562 leukemia
  TGI: > 100 µM
NCI-H522 lung
  TGI: > 100 µM
LOX IMVI melanoma
  TGI: > 100 µM
HT29 colon
  TGI: > 100 µM
HOP-62 NSCLC
  TGI: > 100 µM
M14 melanoma
  TGI: > 100 µM
RPMI-8226 leukemia
  TGI: > 100 µM
U251 CNS
  TGI: > 100 µM
BT-549 breast
  TGI: > 100 µM
SNB-75 CNS
  TGI: > 100 µM
OVCAR-8 ovarian
  TGI: > 100 µM
MCF7 breast
  TGI: > 100 µM
SF-268 CNS
  TGI: > 100 µM
PC-3 prostate
  TGI: > 100 µM
A498 renal
  TGI: > 100 µM
KM12 colon
  TGI: > 100 µM
MALME-3M melanoma
  TGI: > 100 µM

## COC(=O)/C=C\[C@H]1[C@H](C)N1S(=O)(=O)c1ccc(C)cc1 (some centres not stated)
RXF 393 renal
  TGI: > 100 µM
OVCAR-5 ovarian
  TGI: > 100 µM
T-47D breast
  TGI: > 100 µM
786-0 renal
  TGI: > 100 µM
UACC-62 melanoma
  TGI: > 100 µM
SN12C renal
  TGI: > 100 µM
CCRF-CEM leukemia
  TGI: > 100 µM
NCI-H226 lung
  TGI: > 100 µM
SF-539 CNS
  TGI: > 100 µM
TK-10 renal
  TGI: > 100 µM
A549 NSCLC
  TGI: > 100 µM
HCT-116 colon
  TGI: > 100 µM
HL-60(TB) leukemia
  TGI: > 100 µM
MDA-MB-435
  TGI: > 100 µM
OVCAR-3 ovarian
  TGI: > 100 µM
IGROV1 ovarian
  TGI: > 100 µM
HCC-2998 colon
  TGI: > 100 µM
MOLT-4 leukemia
  TGI: > 100 µM
ACHN renal
  TGI: > 100 µM
SK-MEL-2 melanoma
  TGI: > 100 µM
CAKI-1 renal
  TGI: > 100 µM
HS 578T breast
  TGI: > 100 µM
SK-MEL-5 melanoma
  TGI: > 100 µM
SK-MEL-28 melanoma
  TGI: > 100 µM
MDA-N
  TGI: > 100 µM
DU-145 prostate
  TGI: > 100 µM
NCI-H460 lung
  TGI: > 100 µM
OVCAR-4 ovarian
  TGI: > 100 µM
COLO 205 colon
  TGI: > 100 µM
NCI/ADR-RES ovarian
  TGI: > 100 µM
SR leukemia
  TGI: > 100 µM
HCT-15 colon
  TGI: > 100 µM
SK-OV-3 ovarian
  TGI: > 100 µM
EKVX NSCLC
  TGI: > 100 µM
SF-295 CNS
  TGI: > 100 µM
MDA-MB-231 breast
  TGI: > 100 µM
SNB-19 CNS
  TGI: > 100 µM
UACC-257 melanoma
  TGI: > 100 µM
SW-620 colon
  TGI: > 100 µM
NCI-H23 lung
  TGI: > 100 µM
K-562 leukemia
  TGI: > 100 µM
NCI-H522 lung
  TGI: 46 µM
LOX IMVI melanoma
  TGI: > 100 µM
HT29 colon
  TGI: > 100 µM
HOP-62 NSCLC
  TGI: > 100 µM
M14 melanoma
  TGI: > 100 µM
RPMI-8226 leukemia
  TGI: > 100 µM
U251 CNS
  TGI: > 100 µM
BT-549 breast
  TGI: > 100 µM
OVCAR-8 ovarian
  TGI: > 100 µM
MCF7 breast
  TGI: > 100 µM
SF-268 CNS
  TGI: > 100 µM
PC-3 prostate
  TGI: > 100 µM
A498 renal
  TGI: > 100 µM
KM12 colon
  TGI: > 100 µM
MALME-3M melanoma
  TGI: > 100 µM
